One compound from patent US8404790B2, “Aqueous emulsion polymerization process for producing fluoropolymers” (3M Innovative Properties Company, priority 2005, dated 2013) can be followed below.

This data set can be described thus: Determination of bio-accumulation: urinary clearance pharmacokinetic study in rats. The following applies: oral gavage.

Experimental: The fluorinated surfactants were evaluated for urinary clearance using a pharmacokinetic study in rats. The goal was to measure the total amount of parent compound eliminated via urinary output and estimate the rate of elimination.
The study utilized male Sprague Dawley rats, 6 to 8 weeks of age, and approximately 200 to 250 g body weight at study onset. The test compounds of table 2 were administered at a dose of 73 micromoles per kg body weight in rats (N=3 animals per tested compound). All test compounds were prepared in sterile deionized water and given to rats via oral gavage. After test compounds administration, the rats were housed individually in metabolism cages for urine collection: 0 to 6 hours, 6 to 24 hours, 24 to 48 hours and 72 to 96 hours. Animals were observed throughout the study for clinical signs of toxicity. Gross necropsy was performed at the termination of each study (96 hours post-dose) with sera and liver samples being retained from each animal
The concentration of the parent compound or metabolites thereof were quantitatively measured via fluorine NMR on each urine sample for each animal at each time point based on internally added standards.

On to `O=C(O)C(F)(F)OC(F)(F)OC(F)(F)OC(F)(F)OC(F)(F)F` [Compound 1, perfluoro-3,5,7,9-tetraoxadecanoic acid (CF3—(OCF2)4—COOH)], for which, where the note is “73 micromoles per kg body weight, urine, fluorine NMR, exponential least squares curve fitting”, the “T½ (renal elimination half-life)” value was 15 h. Also, where the note is “73 micromoles per kg, recovery of administered amount in urine after 96 h”, the “% Recovery (96 h)” value is on record as 50%.
